{"source": "patent US4150231A", "about": "“1-Nitro-9-dialkylaminoisoalkylaminoacridines or their salts” (priority 1976, dated 1979)", "key": {"respiratory system": {"system": "respiratory system", "experiment": "Influence on the respiratory system", "type": "in vivo", "excerpt": "The influence exerted by the preparation on the respiratory system is of two-phases."}, "rats [1]": {"system": "rats", "experiment": "Extended three-month toxicity study in rats", "type": "in vivo", "settings": "doses 1/150 to 1/50 LD50", "procedure": "(§1) The extended toxicity studies were carried out for a three-month period in rabbits and rats. Doses of from 1/100 to 1/40 LD50 were administered in the case of rabbits, and of from 1/150 to 1/50 LD50 in the case of rats. It should be noted that the highest doses were also the maximum tolerance doses during 12 weeks."}, "[2]": {"system": "muscular coat of the small intestine", "experiment": "In vitro action on muscular coat of small intestine, guinea-pig", "settings": "10^-5 to 5×10^-5, guinea-pig"}, "[3]": {"experiment": "Acute toxicity i.v. in rats (LD50, MTD)", "type": "in vivo", "settings": "rat, in vivo, iv, on average"}, "rats [4]": {"system": "rats", "experiment": "Acute toxicity i.v. in rats (LD50, MTD)", "type": "in vivo"}, "peripheral blood": {"system": "peripheral blood", "experiment": "Extended toxicity: peripheral blood and clotting", "type": "in vivo, rabbits and rats", "procedure": "as §1"}, "Crocker Sarcoma (Sa-180)": {"system": "Crocker Sarcoma (Sa-180)", "experiment": "Inhibition of growth of Crocker Sarcoma (Sa-180) in mice", "type": "in vivo", "settings": "33 determinations in ten series, different doses", "procedure": "The inhibition of growth of Crocker Sarcoma (Sa-180) in mice.\nFor these experiments mice, three months old and about 25 g in weight were used. Each of them was inoculated with a section of sarcoma (Sa-180 and then they were divided in groups: one of control -- 10 mice, and two to four groups of the \"being under treatment\"-mice (7 mice each).\nThe compound investigated in corresponding doses were administered intraperitoneally in appropriate doses, prior to which a maximum tolerance dose was determined.\nAs a criterion for evaluation of the anti-neoplastic activity of the compounds investigated, the percent difference of the mean weights of tumours isolated from control mice, and the \"treated\" mice was used, taking into consideration the toxic effects. As active compounds were those which have inhibited, by at least 40%, the growth of the tumours, in at least two tests without any dying of the animals (less than 2 mice), or any mean losses of the weight greater than 4 g.\nThe investigations in vivo of several compounds were carried out several times, e.g., for the preparation labeled code number C-829, that is for 1-nitro-9-(2-dimethylamino-1-methylethylamino)-acridine dihydrochloride. […] In doses of 0.05 to 0.2 mg/kg the percent of inhibition was 17 to 73%, correspondingly."}, "central nervous system": {"system": "central nervous system", "type": "in vivo", "excerpt": "The preparation C-829 exerted an effect on the principal functions of the central nervous system."}, "liver": {"system": "liver", "set-up": "species or system rabbits and rats", "settings": "in vivo", "procedure": "as §1\nBy prolonged exposition, the influence of the preparation C-829 on the functions of the parenchymateous organs (liver, kidneys) was investigated. […] Only the thymol turbidity test resulted as a positive one, using the highest dosage of the preparation. But it should be kept in mind, that this test is not too exact."}, "rabbits": {"system": "rabbits", "experiment": "Extended three-month toxicity study in rabbits", "type": "in vivo", "settings": "doses 1/100 to 1/40 LD50", "procedure": "as §1"}, "kidneys": {"system": "kidneys", "set-up": "species or system rabbits and rats", "settings": "in vivo", "procedure": "as §1"}, "lymphatic system": {"system": "lymphatic system", "experiment": "Extended toxicity: lymphatic system", "type": "in vivo, rabbits and rats", "settings": "three-month study", "procedure": "as §1"}, "[5]": {"experiment": "Acute toxicity, signs and comparison with other acridine derivatives", "type": "in vivo", "procedure": "(§2) On the other hand, similar doses as related to oral administration are about 100 mg/kg.\n(§3) The MTD-values by oral administration are even lower i.e., by 53-66% than the sharp lethal dose."}, "[6]": {"system": "smooth muscle in the small intestine and the urinary bladder", "experiment": "Action on smooth muscle of small intestine and urinary bladder", "type": "in vivo", "settings": "10 mg/kg, rabbit"}, "circulatory system [7]": {"system": "circulatory system", "experiment": "Circulatory action in atropinized animals", "type": "in vivo", "settings": "atropinized rabbits"}, "[8]": {"experiment": "Acute toxicity by oral administration (LD50, MTD)", "type": "in vivo", "settings": "in vivo, mice and rats", "procedure": "as §2, §3"}, "mice and rats": {"system": "mice and rats", "experiment": "Acute toxicity by oral administration (LD50, MTD)", "type": "in vivo", "procedure": "as §2, §3"}, "reproductory functions": {"system": "reproductory functions", "experiment": "Influence on reproductory functions", "type": "in vivo"}, "circulatory system [9]": {"system": "circulatory system", "experiment": "Circulatory and electrocardiographic effects", "type": "in vivo"}, "[10]": {"system": "muscular coat of the small intestine", "experiment": "In vitro action on muscular coat of small intestine, rat", "settings": "10^-5 to 5×10^-5, rat"}, "[11]": {"experiment": "Acute toxicity i.v. in mice (LD50, MTD)", "type": "in vivo", "settings": "mouse, in vivo, iv, on average"}, "mice": {"system": "mice", "experiment": "Acute toxicity i.v. in mice (LD50, MTD)", "type": "in vivo"}, "[12]": {"experiment": "Local irritation by aqueous solution", "type": "in vivo"}}, "note": "Entries after “also recorded” stand apart in the source; their conditions may differ."}
{"smiles": "CC(CN(C)C)Nc1c2ccccc2nc2cccc([N+](=O)[O-])c12.Cl.Cl", "note": "(stereo not drawn) [Example C-829, 1-nitro-9-(2-dimethylamino-1-methylethylamino)-acridine dihydrochloride]", "values": [{"measurement": "respiratory effect, initial phase", "setting": "respiratory system; at the appearance of hypotension", "result": "instinctive respiratory excitation"}, {"measurement": "respiratory effect, massive doses", "setting": "respiratory system; massive doses", "result": "depressive centrally for respiratory action, leading terminally to an apnoea"}, {"measurement": "maximum tolerance dose during 12 weeks (highest dose)", "setting": "rats [1]", "result": "1/50"}, {"measurement": "action on muscular coat of the small intestine", "setting": "[2]", "result": "rather a contracting (enterospasmatic) one"}, {"measurement": "LD50", "setting": "[3]", "result": 13, "unit": "mg/kg"}, {"measurement": "maximum tolerance dose (MTD), lower than LD50 by", "setting": "rats [4]", "result": "about 30%"}, {"measurement": "influence on the thrombocyte system", "setting": "peripheral blood; preliminary investigations", "result": "did not show the influence of the preparation on the thrombocyte system"}, {"measurement": "picture of the peripheral blood (leukocytic, erythrocytic, hemoglobin levels)", "setting": "peripheral blood; three-month study", "result": "did not change the picture of the peripheral blood"}, {"measurement": "blood clotting (coagulation) time", "setting": "peripheral blood; three-month study, not correlated with dosage", "result": "prolonged the blood clotting (coagulation) time"}, {"measurement": "dose dependence of inhibition of Sa-180 growth", "setting": "Crocker Sarcoma (Sa-180)", "result": "dependent upon the dose"}, {"measurement": "interaction with soporific (hypnotic) drugs", "setting": "central nervous system; 10 LD50 (so in the source)", "result": "clear depressive component value"}, {"measurement": "action in the presence of cardiazol and strychnine", "setting": "central nervous system; in vivo", "result": "complex and non-characteristic"}, {"measurement": "influence on spontaneous motility", "setting": "central nervous system; in vivo", "result": "devoid, indeed, of an influence on the spontaneous motility of animals"}, {"measurement": "liver function (transaminase AlAt, AspAt, acidic and alkaline phosphatase in serum)", "setting": "liver", "result": "It could not be determined, that it could influence the functions of the liver"}, {"measurement": "liver histology", "setting": "liver", "result": "some weak (hardly perceptible) traits of the parenchymatous degeneration of glandular cells"}, {"measurement": "thymol turbidity test", "setting": "liver", "result": "positive"}, {"measurement": "maximum tolerance dose during 12 weeks (highest dose)", "setting": "rabbits", "result": "1/40"}, {"measurement": "endogenous creatinine level in the serum", "setting": "kidneys", "result": "remained unchanged"}, {"measurement": "glomerular filterability", "setting": "kidneys", "result": "maintained within standard limits"}, {"measurement": "kidney histology", "setting": "kidneys", "result": "some focal parenchymatous degeneration character in renal tubules"}, {"measurement": "urine: pathological components and specific weight", "setting": "kidneys", "result": "neither induced any appearance of pathological components in urine, nor changed its specific weight"}, {"measurement": "lymphatic system: proliferous centers and small lymphocytes", "setting": "lymphatic system", "result": "The structure of the proliferous centers became imperceptible, and also the amount of small lymphocytes diminished"}, {"measurement": "lymphatic system: rete elements", "setting": "lymphatic system", "result": "hypertrophy of rete elements"}, {"measurement": "alterations in the lymphatic system", "setting": "lymphatic system; especially mesenteric lymph nodes", "result": "very discretely marked involutional alterations"}, {"measurement": "period over which animals die", "setting": "[5]; in vivo", "result": "up to 10 days"}, {"measurement": "relative toxicity among the derivatives of acridine", "setting": "[5]; in vivo", "result": "relatively lower toxicity"}, {"measurement": "toxic signs at death", "setting": "[5]; regardless of the way of administration, dihydrochloride", "result": "intensified symptoms of the alimentary canal; also recorded: A sharp intestinal obstruction of the paralytic type occurs"}, {"measurement": "action on smooth muscle", "setting": "[6]", "result": "spasmolytic"}, {"measurement": "change of circulatory action by atropinization", "setting": "circulatory system [7]", "result": "does not change the action of the preparation on the circulatory system"}, {"measurement": "LD50", "setting": "[8]", "result": "~100", "unit": "mg/kg"}, {"measurement": "MTD by oral administration, lower than the sharp lethal dose by", "setting": "mice and rats", "result": "53-66%"}, {"measurement": "effect on testicles", "setting": "reproductory functions; 1/50 LD50, 14 days", "result": "some retrograde microscopical metaplasia within the germinal epithelium of spermatic tubules of the testicles, leading to a disorder in the spermatogenesis"}, {"measurement": "effect on females fructified and newborn animals per brood", "setting": "reproductory functions; 1/50 LD50, 14 days prior to connexion", "result": "reduced the amount of fructified females, as well as diminished the number of newborn animals in broods"}, {"measurement": "effect on ovary", "setting": "reproductory functions; 14 days", "result": "no observed pathological alteration in the ovary"}, {"measurement": "development of the foetus and newborn animals", "setting": "reproductory functions; 14 days prior to connexion", "result": "no macroscopic disorders of development of the foetus and newborn animals"}, {"measurement": "ECG intervals: PQ and QRS sections", "setting": "circulatory system [9]; higher doses, intravenously", "result": "prolonging the PQ section and in widening the QRS section"}, {"measurement": "blood pressure and conductivity disturbances", "setting": "circulatory system [9]; higher doses, intravenously", "result": "intensified hypotension, induced some disturbances characteristic enough of the acridine compounds both in the atrio-ventricular and intraventricular conductivity"}, {"measurement": "electrocardiographic changes", "setting": "circulatory system [9]; initially, intravenously, doses increasing to 5 mg/kg", "result": "initially was not accompanied by any electrocardiographic changes"}, {"measurement": "effect on blood pressure", "setting": "circulatory system [9]; intravenously, doses increasing to 5 mg/kg, rabbits, cats", "result": "transient hypotension effect"}, {"measurement": "conductivity disturbance at lethal doses", "setting": "circulatory system [9]; lethal doses", "result": "total auriculoventricular dissociation"}, {"measurement": "character of circulatory effect", "setting": "circulatory system [9]; lower and moderate doses", "result": "transient character"}, {"measurement": "action on muscular coat of blood-vessels", "setting": "circulatory system [9]; rabbit, in vivo", "result": "tonic action on the muscular coat of the blood-vessels"}, {"measurement": "action on muscular coat of the small intestine", "setting": "[10]", "result": "rather a contracting (enterospasmatic) one"}, {"measurement": "LD50", "setting": "[11]", "result": 21, "unit": "mg/kg"}, {"measurement": "maximum tolerance dose (MTD), lower than LD50 by", "setting": "mice", "result": "~20", "unit": "%"}, {"measurement": "local action of aqueous solution", "setting": "[12]; 0.05-1% aqueous solution", "result": "locally irritating action"}, {"measurement": "local action at higher concentrations", "setting": "[12]; higher concentrations, aqueous solution", "result": "narcotizing effect"}, {"measurement": "local irritation with phosphate buffer as solvent", "setting": "[12]; phosphate buffer solution of Sorensen at pH 7", "result": "partially alleviated"}]}
